Assay results published in patent US9101638B2, “Boronic acid derivatives and therapeutic uses thereof” (Rempex Pharmaceuticals, Inc., priority 2013, dated 2015).

Experiments:
[1] = system: KP1005 (CTX-M-14)
[2] = system: KP1010 (SHV-12); experiment: Potentiation of tigemonam, strain KP1010; conditions: strain KP1010 SHV-12, tigemonam alone
[3] = system: EC1010 (CMY-6); type: cell-based; conditions: strain EC1010 CMY-6, tigemonam alone
[4] = system: ec302 (TEM-10); experiment: Potentiation of tigemonam, strain ec302; type: cell-based; conditions: strain ec302 TEM-10, tigemonam alone
[5] = system: KP1009 (CTX-M-15); experiment: Potentiation of tigemonam, strain KP1009; conditions: strain KP1009 CTX-M-15, tigemonam alone
[6] = system: ec308 (SHV-5); experiment: Potentiation of tigemonam, strain ec308; type: cell-based; conditions: strain ec308 SHV-5, tigemonam alone
[7] = system: KP1004 (KPC-2); experiment: Potentiation of biapenem, strain KP1004; type: cell-based; conditions: strain KP1004 KPC-2, biapenem alone
Protocol: (§1) Biapenem was present in the test medium at 1 μg/mL. […] Table 3 summarizes the BLI potency of biapenem potentiation (MPC@1) for two strains overexpressing class A (KPC) and class D (OXA-48) carbapenemases. Biapenem MIC for each strain is also shown.

[8] = system: PAM1154/KPC-2; experiment: Biapenem potentiation in PAM1154/KPC-2 (MexAB-OprM lacking); type: cell-based, Pseudomonas aeruginosa; conditions: Pseudomonas aeruginosa
Protocol: (§2) Efflux of BLIs from Pseudomonas aeruginosa by the MexAB-OprM efflux pump was also evaluated. […] Due to expression of KPC-2 both strains became resistant to biapenem. […] Potency of BLIs to potentiate biapenem in these strains was determined. […] The ratio of MPC64 values for each BLI in PAM1032/KPC-2 (efflux proficient) and PAM1154/KPC-2 (efflux deficient) was determined to generate the Efflux Index (EI).

[9] = system: PAM1032/KPC-2; experiment: Biapenem potentiation in PAM1032/KPC-2 (MexAB-OprM overexpressed); type: cell-based, Pseudomonas aeruginosa; conditions: Pseudomonas aeruginosa
Protocol: as §2

[10] = system: KP1086 (OXA-48); experiment: Potentiation of biapenem, strain KP1086; type: cell-based; conditions: strain KP1086 OXA-48, biapenem alone
Protocol: as §1

SMILES	Tigemonam MIC [1] [µg/mL]	Tigemonam MIC [2] [µg/mL]	Tigemonam MIC [3] [µg/mL]	Tigemonam MIC [4] [µg/mL]	Tigemonam MIC [5] [µg/mL]	Tigemonam MIC [6] [µg/mL]	MIC [7] [µg/mL]	MIC [8] [µg/mL]	MIC [9] [µg/mL]	MIC [10] [µg/mL]
CC1(C)[C@H](NC(=O)/C(=N\OCC(=O)O)c2csc(N)n2)C(=O)N1OS(=O)(=O)O [Tigemonam, reference compound]	>64	>64	16	>64	>64	>64				
C[C@@H](O)[C@H]1C(=O)N2C(C(=O)[O-])=C(SC3Cn4cnc[n+]4C3)[C@H](C)[C@H]12 (stereo partly shown) [Biapenem, reference compound]							32	32	32	16
